In article PMC3690544 (European journal of pharmacology, 2012):
Where two headings read alike, the source gives them in different places.

Columns and labels:
P-glycoprotein (Pgp) [1] = target: T1, P-glycoprotein (Pgp) (Homo sapiens, UniProt P08183); assay type: cell-based
P-glycoprotein (Pgp) [2] = target: T1, P-glycoprotein (Pgp); assay type: cell-based; remark: listed apart in the source

T1 sequence (P08183 whole entry): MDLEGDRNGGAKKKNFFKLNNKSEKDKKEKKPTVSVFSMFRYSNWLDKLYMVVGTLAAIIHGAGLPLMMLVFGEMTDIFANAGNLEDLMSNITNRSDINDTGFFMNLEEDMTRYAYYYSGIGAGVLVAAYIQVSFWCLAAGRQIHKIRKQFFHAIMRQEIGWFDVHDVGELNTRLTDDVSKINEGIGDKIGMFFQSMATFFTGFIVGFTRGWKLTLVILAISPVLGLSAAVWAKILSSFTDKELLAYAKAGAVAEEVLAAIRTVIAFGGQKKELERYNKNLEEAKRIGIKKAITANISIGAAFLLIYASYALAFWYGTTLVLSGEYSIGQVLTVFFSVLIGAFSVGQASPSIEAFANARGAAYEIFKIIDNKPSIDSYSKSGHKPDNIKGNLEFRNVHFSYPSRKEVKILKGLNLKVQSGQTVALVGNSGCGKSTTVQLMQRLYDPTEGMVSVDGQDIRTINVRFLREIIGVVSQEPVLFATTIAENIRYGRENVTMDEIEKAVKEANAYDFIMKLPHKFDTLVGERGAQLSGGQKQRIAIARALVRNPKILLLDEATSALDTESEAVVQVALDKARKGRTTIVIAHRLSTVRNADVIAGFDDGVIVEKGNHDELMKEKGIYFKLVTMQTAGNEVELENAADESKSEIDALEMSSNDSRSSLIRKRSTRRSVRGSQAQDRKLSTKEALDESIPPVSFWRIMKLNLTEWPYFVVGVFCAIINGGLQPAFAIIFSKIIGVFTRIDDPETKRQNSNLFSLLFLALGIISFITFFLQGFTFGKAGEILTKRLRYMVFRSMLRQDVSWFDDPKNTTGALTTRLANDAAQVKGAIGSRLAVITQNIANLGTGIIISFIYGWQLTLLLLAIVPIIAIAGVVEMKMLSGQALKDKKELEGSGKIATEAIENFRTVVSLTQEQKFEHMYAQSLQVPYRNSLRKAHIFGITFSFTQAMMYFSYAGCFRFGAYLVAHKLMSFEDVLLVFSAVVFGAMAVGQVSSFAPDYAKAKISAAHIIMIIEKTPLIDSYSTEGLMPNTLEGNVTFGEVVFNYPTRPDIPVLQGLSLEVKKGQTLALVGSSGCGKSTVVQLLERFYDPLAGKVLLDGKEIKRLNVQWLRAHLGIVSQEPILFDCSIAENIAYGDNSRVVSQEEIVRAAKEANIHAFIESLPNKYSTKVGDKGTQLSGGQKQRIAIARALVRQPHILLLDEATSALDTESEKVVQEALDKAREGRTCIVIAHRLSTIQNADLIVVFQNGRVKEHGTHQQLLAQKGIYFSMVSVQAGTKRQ

Structure (SMILES): COc1cc2c(cc1OC)CN(CCc1ccc(-n3nnc(-c4cc(OC)c(OC)cc4NC(=O)c4cc(=O)c5ccccc5o4)n3)cc1)CC2 [HM30181, N-(2-(2-(4-(2-(6,7-dimethoxy-3,4-dihydroisoquinolin-2(1H)-yl)ethyl)phenyl)-2H-tetrazol-5-yl)-4,5-dimethoxyphenyl)-4-oxo-4H-chromene-2-carboxamide]
- IC50 (P-glycoprotein (Pgp) [1]): 13.1 ± 2.3 nM

Structure (SMILES): COc1cc2c(cc1OC)CN(CCc1ccc(NC(=O)c3cc(OC)c(OC)cc3NC(=O)c3cnc4ccccc4c3)cc1)CC2 [tariquidar]
- IC50 (P-glycoprotein (Pgp) [2]): 8.2 ± 2 nM
